In data set [1] the target is T1, TRPC5 (Homo sapiens, UniProt Q9UL62, V455M/Q573T).
T1 construct: TRPC5-SYFP2 Q573T
T1 sequence (Q9UL62 1-973 V455M/Q573T): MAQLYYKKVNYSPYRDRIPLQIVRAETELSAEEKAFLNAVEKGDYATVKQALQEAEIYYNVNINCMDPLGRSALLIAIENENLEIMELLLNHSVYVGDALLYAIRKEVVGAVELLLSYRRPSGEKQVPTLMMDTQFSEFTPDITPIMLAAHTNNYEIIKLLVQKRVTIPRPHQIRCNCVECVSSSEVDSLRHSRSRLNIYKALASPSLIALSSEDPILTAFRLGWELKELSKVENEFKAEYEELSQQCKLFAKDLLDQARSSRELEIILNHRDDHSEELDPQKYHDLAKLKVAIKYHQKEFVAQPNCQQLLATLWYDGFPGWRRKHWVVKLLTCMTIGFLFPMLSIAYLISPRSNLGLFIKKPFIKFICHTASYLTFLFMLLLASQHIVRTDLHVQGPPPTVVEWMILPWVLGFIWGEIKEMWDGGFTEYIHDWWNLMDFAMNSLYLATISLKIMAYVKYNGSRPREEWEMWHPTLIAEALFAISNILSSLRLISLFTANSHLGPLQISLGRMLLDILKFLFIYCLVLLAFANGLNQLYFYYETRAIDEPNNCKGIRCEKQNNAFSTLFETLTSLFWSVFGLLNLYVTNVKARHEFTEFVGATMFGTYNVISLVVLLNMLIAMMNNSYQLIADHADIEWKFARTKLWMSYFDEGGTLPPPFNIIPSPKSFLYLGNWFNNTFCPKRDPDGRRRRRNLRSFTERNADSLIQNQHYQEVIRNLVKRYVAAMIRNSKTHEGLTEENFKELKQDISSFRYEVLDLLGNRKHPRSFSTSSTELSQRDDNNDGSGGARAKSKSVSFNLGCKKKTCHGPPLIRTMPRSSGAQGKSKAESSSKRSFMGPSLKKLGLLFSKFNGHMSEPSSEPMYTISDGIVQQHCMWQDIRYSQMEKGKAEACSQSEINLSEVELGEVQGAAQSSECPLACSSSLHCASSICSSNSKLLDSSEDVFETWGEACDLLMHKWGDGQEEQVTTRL
The experiment in a line: Fura-2 intracellular calcium assay in transfected HEK […] cells. In kind it is cell-based. The note with it: read-out: AM237 EC50.

Data set [2] deals with T2, TRPC5 (Homo sapiens, UniProt Q9UL62, V455M).
T2 construct: TRPC5-SYFP2, wild-type (contains the previously described V455M)
T2 sequence (Q9UL62 1-973 V455M): T1 sequence (Q9UL62 1-973 V455M/Q573T) with T573Q
The description is as above. It counts as cell-based.

In data set [3] the target is T3, TRPC5 (human TRPC5:C5 channel) (Homo sapiens, UniProt Q9UL62, V455M).
T3 construct: MBP-PreS-hTRPC5Δ766–975 (C-terminally truncated), homotetramer
T3 sequence (Q9UL62 1-765 V455M): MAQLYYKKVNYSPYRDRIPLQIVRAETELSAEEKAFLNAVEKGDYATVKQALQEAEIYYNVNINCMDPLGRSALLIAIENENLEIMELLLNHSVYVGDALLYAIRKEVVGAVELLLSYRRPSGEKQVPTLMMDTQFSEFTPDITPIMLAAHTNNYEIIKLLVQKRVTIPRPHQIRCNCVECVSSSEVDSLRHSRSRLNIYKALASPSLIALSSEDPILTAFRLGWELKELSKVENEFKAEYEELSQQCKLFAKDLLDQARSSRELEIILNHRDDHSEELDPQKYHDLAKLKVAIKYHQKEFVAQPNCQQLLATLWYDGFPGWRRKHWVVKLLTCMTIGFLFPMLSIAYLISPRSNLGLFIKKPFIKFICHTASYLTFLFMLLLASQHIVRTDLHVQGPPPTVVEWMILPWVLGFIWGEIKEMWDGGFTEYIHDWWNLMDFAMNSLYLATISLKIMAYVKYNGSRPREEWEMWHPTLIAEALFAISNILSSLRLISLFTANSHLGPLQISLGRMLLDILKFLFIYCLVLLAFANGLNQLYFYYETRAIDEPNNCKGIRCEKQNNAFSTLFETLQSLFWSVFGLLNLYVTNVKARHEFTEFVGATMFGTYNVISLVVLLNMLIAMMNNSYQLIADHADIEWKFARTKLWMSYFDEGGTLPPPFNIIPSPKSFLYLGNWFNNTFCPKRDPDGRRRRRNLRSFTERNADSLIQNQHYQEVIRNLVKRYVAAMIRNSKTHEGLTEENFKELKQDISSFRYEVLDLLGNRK
Nature of the data set: cryo-EM structure at […] Å; also inhibition of EA-activated channel in HEK […] calcium assay. It counts as cell-based.

Data set [4] deals with the molecule itself. The experiment in a line: cryo-EM structure; purified TRPC5 in PMAL-C8 at 2 mg/ml with 100 µM Pico145 (also 1 mg/ml with 50 µM Pico145 or 20 µM ZnCl2); C4 symmetry, also refined with C1.

Changes are numbered by the printed parent chain. Names may count otherwise.

Take `Cn1c(=O)n(CCCO)c(=O)c2c1nc(Oc1ccc(Cl)c(OC(F)(F)F)c1)n2Cc1ccc(Cl)cc1` [AM237]: the EC50 – broadly, the concentration that produces a half-maximal response – in data set [1] amounted to 110 nM; in data set [2], 10.6 nM.
For `Cn1c(=O)n(CCCO)c(=O)c2c1nc(Oc1cccc(OC(F)(F)F)c1)n2Cc1ccc(Cl)cc1` [Pico145], in data set [3], the IC50 – broadly, the concentration that gives 50% inhibition – worked out at 4 nM.

B1: MBP-PreS-hTRPC5(Δ766–975) (complex, human, UniProt Q9UL62 1-765, looked up)
chain: T3 sequence (Q9UL62 1-765 V455M)
notes: Transient Receptor Potential Canonical 5 (TRPC5), human, C-terminally truncated (Δ766–975), carries V455M from the PCR template TRPC5-SYFP2; A PreScission protease site (PreS) lies between MBP and TRPC5; MBP, PreS and the first 16 residues of TRPC5 were not resolved in the map; Homotetrameric channel in amphipol PMAL-C8; also called human TRPC5; TRPC5:C5 channel; not shown: MBP, N-terminal, kept
On to B1, for which the stoichiometry N (commonly a count of units in the complex or per binding partner) in data set [4] amounted to 4.
